# According to patent US5964224A, “Method for treating amyotrophic lateral sclerosis and a therapeutic agent therefor” (priority 1997, dated 1999):
# “Also recorded” adds a separate entry of the source.
# Key:
# [1] = tested on: patients with ALS; conditions: cited from earlier work; for beneficial effects in ALS: anecdotal or preliminary observations; for potency in improving the clinical symptoms or prolonging life: patients with ALS
# [2] = tested on: patients with ALS; experiment: Averaged CMAP amplitudes before and after treatment in ALS patients, 0.5 mg/day i.v., 15 mg/day i.v. and 25 mg/day i.m. groups; assay type: in vivo, human
# Experimental: (§1) […] were recorded bilaterally from the abductor pollicis brevis, abductor digiti minimi and abductor hallucis muscles after stimulation of the median, ulnar and tibial nerves at the wrist or at the ankle. Amplitudes were measured from the baseline to the negative peak. In each patient, the average amplitude from the six muscles (averaged CMAPs) served as an index of the number of muscle fibers innervated by spinal motoneurons. The method employed was that of Kelly et al.[Muscle Nerve 10, 471-179 (1990)] and Kimura [in Electrodiagnosis in diseases of nerve and muscle: principles and practice, 2nd edition, F. A. Davis ed.(1989), pages 85-87], the disclosures of which are incorporated herein by reference.
# CMAP amplitudes were averaged in 10 patients with ALS treated with a low dose of methycobalamin (0.5 mg/day i.v. for 2 weeks). Those before the treatment and those 2 weeks after the completion of the treatment were compared.
# CMAP amplitudes were averaged in 12 patients with ALS treated with a high dose of methylcobalamin (15 mg/day i.v. for 2 weeks). Those before the treatment, those at the end of the treatment and those 2 weeks after the completion of the treatment were compared.
# CMAP amplitudes were averaged in 12 patients with ALS treated with an ultra-high dose of methylcobalamin (25 mg/day i.m. for 2 weeks). Those before the treatment, those at the end of the treatment and those 2 weeks after the completion of the treatment were compared.
# The ratio of averaged CMAP amplitudes at 2 weeks after the completion of the treatment (after 4 wks) was compared with those before the treatment.
# [3] = tested on: patients with ALS; experiment: Double-blind trial: averaged compound muscle action potential (CMAP) amplitudes in ALS patients, ultra-high versus low dose i.m.; assay type: in vivo, human
# Experimental: (§2) To develop a symptomatic treatment for amyotrophic lateral sclerosis, I have compared the effects of ultra-high dose and low dose (25 mg/day and 0.5 mg/day, i.m. for 14 days) of methylcobalamin on the averaged compound muscle action potential amplitudes, which serve as an index of muscle power, in a double-blind trial.
# as §1
# (§3) A total of 24 ALS patients without respiratory failure entered the study after giving an informed consent for the protocol approved by the Institutional Review Board. Twelve of them (High Dose Group; age 45-66 years, 5 men) received the ultra-high dose (25 mg/day or 360-610 μg/kg/day, i.m.) methylcobalamin and the other 12 (Low Dose Group; age 41-66 years, 6 men) received the low dose (0.5 mg/day or […],i.m.) as a control. The two groups were matched for age, disease durations (19.6±4.1 versus 21.7±3.2 months) and initial averaged CHAP amplitudes (5.27±0.84 versus 4.48±0.91 mV). The patients were blinded as to the dose. The examiner, who was not informed of the dose, measured CMAPs immediately before starting methylcobalamin (day 1), at the end of 2 weeks of administration (day 14) and at 4 weeks after the start (day 28).
# [4] = degraded into hydoxycobalamin; cited from earlier work
# [5] = tested on: mouse; conditions: 20 mg/kg/day i.p., organogenesis; cited from earlier work
# [6] = tested on: patients with ALS; experiment: Clinical symptoms (gait, weakness) and duration of benefit in ALS patients; assay type: in vivo, human
# Experimental: as §3
# [7] = tested on: rabbit; conditions: 50 mg/kg/day, organogenesis; cited from earlier work
# [8] = tested on: beagles; conditions: 50.0 mg/kg/day, 6 months, cited from earlier work
# [9] = tested on: rat; conditions: 20 mg/kg/day i.p. (organogenesis) or 50 mg/kg i.v. (pre-gestation to postnatal); cited from earlier work
# [10] = intramuscular versus intravenous route; cited from earlier work
# [11] = tested on: beagles; conditions: 90 days, cited from earlier work
# [12] = tested on: patient with ALS; experiment: Time course of averaged CMAP amplitude in a patient with ALS given 50 mg/day; assay type: in vivo, human; conditions: day 0 through 13, one patient
# Experimental: as §1
# These clinical benefits and improved CMAPs usually lasted for 1-3 months, then followed by deterioration. […] Serial changes of averaged CMAP amplitudes in low dose (0.5 mg/day i.m., n=12) group and high dose (25 mg/day i.m., n=12) group were examined. Methylcobalamin was given during day 0 through day 13. […] The time course of averaged CMAP amplitude changes in a patient with ALS who was given 50 mg/day of methylcobalamin during day 0 day through 13 was examined.
# [13] = tested on: animals; conditions: cited from earlier work
# [14] = tested on: rat; conditions: same doses as subacute, 6 months; cited from earlier work
# [15] = tested on: patients with ALS; experiment: Adverse reactions in ALS patients (clinical trial); assay type: in vivo, human
# Experimental: as §2, §3
# [16] = tested on: rats; conditions: 0.5, 5.0 and 20.0 mg/kg/day i.p., 30 days; cited from earlier work
# [17] = High Dose Group, 25 mg/day i.m., n=12
molecule,measurement,setting,value
O=P1(N(CCCl)CCCl)NCCCO1 (stereo not shown) [cyclophosphamide],beneficial effects in ALS,[1],beneficial effects
C/C1=C2/[N-][C@H]([C@H](CC(N)=O)[C@@]2(C)CCC(=O)NC[C@@H](C)OP(=O)([O-])O[C@H]2[C@@H](O)[C@@H](n3cnc4cc(C)c(C)cc43)O[C@@H]2CO)[C@]2(C)N=C(/C(C)=C3N=C(/C=C4N=C1[C@@H](CCC(N)=O)C\4(C)C)[C@@H](CCC(N)=O)[C@]\3(C)CC(N)=O)[C@@H](CCC(N)=O)[C@]2(C)CC(N)=O.[CH3-].[Co+3] [methylcobalamin],change in averaged CMAP amplitude,"[2]; 0.5 mg/day i.v. for 2 weeks, 10 patients, 2 weeks after completion vs before",No significant changes were found
same,change in averaged CMAP amplitude,"[2]; 15 mg/day i.v. for 2 weeks, 12 patients, before, end, 2 weeks after completion","tendency toward increase of CMAPs at 2 weeks after the completion of the treatment, no statistically significant differences were found"
same,change in averaged CMAP amplitude,"[2]; 25 mg/day i.m. for 2 weeks, 12 patients, 2 weeks after completion",statistically significant increase of CMAPs at 2 weeks after the completion of the treatment
same,"ratio of averaged CMAP amplitudes 2 weeks after completion to before treatment, ultra-high versus low dose group","[2]; 25 mg/day i.m. versus 0.5 mg/day i.v., 2 weeks, FIG. 1",statistically significant difference
same,"p value, ratio of averaged CMAP amplitudes between groups","[2]; 25 mg/day i.m. versus 0.5 mg/day i.v., unpaired t-test",< 0.05
same,ratio of averaged CMAP amplitude at day 14 or day 28 to that at day 0,"[3]; 25 mg/day and 0.5 mg/day i.m., n=12 each",only the high dose group showed a significant increase in the ratio at day 28
same,change in averaged CMAP amplitude,"[3]; 25 mg/day i.m., at 2 weeks (day 14)",not at 2 weeks
same,"CMAP amplitude ratio between day zero and day 28, High Dose versus Low Dose Group",[3]; 25 mg/day versus 0.5 mg/day i.m.,significantly higher ratio than Low Dose Group
same,parameter of muscle power (CMAPs),"[3]; 15-500 mg/day, i.m., s.c. or i.v. for 14 days, low dose as control (summary statement)",significantly increases the parameter of muscle power
same,change in averaged CMAP amplitude,"[3]; low dose 0.5 mg/day i.m. for 14 days, at 2 or 4 weeks",No significant changes in CMAP amplitude
same,change in averaged CMAP amplitude,"[3]; low dose 0.5 mg/day i.m. for 14 days, at 2 or 4 weeks, listed as Methylcobalamin",no significant changes in CMAP amplitude
same,change in averaged CMAP amplitude,"[3]; ultra-high dose 25 mg/day i.m. for 14 days, at 4 weeks (day 28)",significant increase at 4 weeks; also recorded: increase of averaged CMAP amplitudes at day 28
same,change in averaged CMAP amplitude,"[3]; ultra-high dose 25 mg/day i.m. for 14 days, at 4 weeks (day 28), listed as Methylcobalamin",significant increase at 4 weeks
same,light sensitivity,[4],"light-sensitive, and is easily degraded into hydoxycobalamin"
same,"changes in the embryo, the fetus or the neonate",[5],"no significant changes in the embryo, the fetus or the neonate"
same,subjective weakness,"[6]; 15-500 mg/day, i.m., s.c. or i.v. for 14 days (summary statement)",improves the subjective weakness
same,improvement in gait and weakness,[6]; [17],Two patients in High Dose Group noted an improvement in gait and weakness
same,duration of clinical benefits and improved CMAPs,"[6]; High Dose Group, 25 mg/day i.m., then followed by deterioration",1-3 months
same,improvement of clinical symptoms and objective clinical measure,"[6]; ultra-high dose, ALS patients",improvement of both clinical symptoms and an objective clinical measure
same,"changes in the embryo, the fetus or the neonate",[7],"no significant changes in the embryo, the fetus or the neonate"
same,Kupffer cells in the liver,[8],increased number of Kuppfer cells in the liver
same,"lysosomes, electron microscopy",[8],increase in lysosomes
same,mesangial cells in the renal glomeruli,[8],lysosomal increase in the mesangeal cells in the renal glomeruli
same,"kidney proximal tubules, light microscopy",[8]; only this dose,increased eosinophilic granules in the proximal tubules in the kidney
same,"changes in the embryo, the fetus or the neonate",[9],"no significant changes in the embryo, the fetus or the neonate"
same,half life in the blood level,[10],longer half life in the blood level
same,epididymis findings,"[11]; 50.0 mg/kg/day i.v., a dog",No changes were noted in the epidydimis
same,histological finding in the kidney,"[11]; 50.0 mg/kg/day i.v., a dog",increased eosinophilic granules in the proximal tubules in the kidney
same,subacute toxicity findings,"[11]; 0.5, 5.0 and 50.0 mg/kg/day i.v.",normal findings
same,time course of averaged CMAP amplitude,[12],abrupt increase of the amplitude during and after the treatment
same,major side effects,"[13]; 50 mg/kg/day, animals",no major side effects have been observed
same,edema and redness of the skin,"[13]; 50 mg/kg/day, on rare occasions",transient edema and redness of the skin
same,red urine,[13]; disappears after discontinuing the administration,"Red urine may be found, but it soon disappears"
same,chronic toxicity findings,[14],No significant changes were found
same,adverse reactions: elevation of serum GOT and GPT,[15]; [17],mild elevation of serum GOT and GPT in another
same,adverse reactions: skin rash,[15]; [17],skin rash in one patient
same,duration of adverse reactions (skin rash; GOT/GPT elevation),"[15]; High Dose Group, 25 mg/day i.m., both",about a week
same,major side effects,"[15]; clinical trial, 25 mg/day and 0.5 mg/day i.m. for 14 days",No major side effects were seen
same,"general conditions, body weight, blood and urine chemistry, organ weights and histological findings",[16],"no significant changes in the general conditions, body weight, blood and urine chemistry, organ weights and histological findings"
IGF-1: insulin-like growth factor-1,beneficial effects in ALS,[1],beneficial effects
superoxide dismutase,potency in improving the clinical symptoms or prolonging life,[1],not yet convincingly shown their potency
Nc1nc2ccc(OC(F)(F)F)cc2s1 [riluzole],prolongation of life without tracheostomy,[1]; a subgroup of ALS,1-3 months
vitamin E,potency in improving the clinical symptoms or prolonging life,[1],not yet convincingly shown their potency
COc1ccc2c(c1)[C@]13CCCC[C@@H]1[C@H](C2)N(C)CC3 [dextromethorphan],potency in improving the clinical symptoms or prolonging life,[1],not yet convincingly shown their potency
"ciliary neurotrophic factor: ciliary neurotrophic factor (protein, UniProt P26441 1-200, looked up) Ciliary neurotrophic factor: MAFTEHSPLTPHRRDLCSRSIWLARKIRSDLTALTESYVKHQGLNKNINLDSADGMPVASTDQWSELTEAERLQENLQAYRTFHVLLARLLEDQQVHFTPTEGDFHQAIHTLLLQVAAFAYQIEELMILLEYKIPRNEADGMPINVGDGGLFEKKLWGLKVLQELSQWTVRSIHDLRFISSHQTGIPARGSHYIANNKKM",potency in improving the clinical symptoms or prolonging life,[1],not yet convincingly shown their potency
